The test system of this assay is M17-TAU P301L cells. Nature of the assay: TAU cytotoxicity assay: LDH leakage of retinoic acid incubated M17-TAU P301L cells. It counts as cell-based, human. The note with it: Homo sapiens, 168 h, reduction of LDH activity of retinoic acid incubated M17-TAU P301L cells, 7 days. The source says: A TAU expression plasmid was constructed by sub-cloning the cDNA of human TAU-P301 L (encoding for TAU with proline 301 substituted by a leucine residue) into mammalian expression vector pcDNA3.1 resulting in plasmid pcDNA3.1-TAU P301L. Plasmids pcDNA3.1 and pcDNA3.1-TAU P301L were transfected to human neuroblastoma cells ([…]; ATCC No. CRL-2267) and independent clonal lines with the plasmids stably integrated into the genome were selected. […] Expression of the TAU P301L genes in the cell lines was confirmed by Western analysis.
In degenerated or dead cells lactate dehydrogenase (LDH) is leaked out of the cells into the extracellular environment due to a loss of plasma-membrane integrity. This principle was used to determine cytotoxicity by quantifying the level of leaked LDH into the growth medium.
The detailed method for determining TAU cytotoxicity was as follows: From appropriate precultures of M17-3.1 and M17-TAU(P301L) cells were seeded at 2500 cells/cm2 in Optimem Reduced Serum without phenol red (Gibco, Cat. 31985-047) supplemented with 1% fetal calf serum, 1 mM sodium pyruvate, 1× non-essential amino acids, 500 μg/ml G418 0.5× antibiotic/antimycotic. After 3 h of incubation at 37° C./5% CO2 1 volume of Optimem Reduced Serum (same as described above; except without fetal calf serum) supplemented with 2.5 μM retinoic acid (RA) was added. The cells were further incubated for 7 days. Subsequently, LDH activity was determined using Promega Cytotox 96 Non-Radioactive cytotoxicity assay, (Cat. G1780) according the supplier's instructions.
The M17-TAU P301L cell line made it possible to assess the ability of novel compounds to counteract TAU cytotoxicity. […] These measurements were used to calculate EC50 values of table 2.
Exemplary compounds of the present invention are shown in table 2, with their chemical name and their EC50 value (expressed in nM) as determined from example 196 in the Tau-induced toxicity experiment.

For the compound `CC(C)c1ccc(N2CCC(C(=O)NCCc3c[nH]c4ccc(Cl)cc34)C2=O)cc1` (centres unmarked) [Example D71, N-(2-(5-chloro-1H-indol-3-yl)ethyl)-1-(4-isopropylphenyl)-2-oxopyrrolidine-3-carboxamide], the concentration for a half-maximal effect (EC50) worked out at 413 nM.

On to `Cc1cc(C(=O)NCCc2c[nH]c3ccccc23)c(C)n1C1CC1` [Example D72, N-(2-(1H-indol-3-yl)ethyl)-1-cyclopropyl-2,5-dimethyl-1H-pyrrole-3-carboxamide], for which a half-maximal effect (EC50) was put at 453 nM.

The compound `Cc1nc(-c2cnccn2)sc1C(=O)NCCc1c[nH]c2ccc(Cl)cc12` [Example D73, N-(2-(5-chloro-1H-indol-3-yl)ethyl)-4-methyl-2-(pyrazin-2-yl)thiazole-5-carboxamide] had an EC50 of 515 nM.

`COc1ccc2c(CCNC(=O)c3cc(Cc4cccc(F)c4)on3)c[nH]c2c1` [Example D74, 5-(3-fluorobenzyl)-N-(2-(6-methoxy-1H-indol-3-yl)ethyl)isoxazole-3-carboxamide] returned an EC50 of 534 nM.

`O=C(NCCc1c[nH]c2ccc(Cl)cc12)N1CCC(Cc2ccccc2)C1` (centres unmarked) [Example D75, 3-benzyl-N-(2-(5-chloro-1H-indol-3-yl)ethyl)pyrrolidine-1-carboxamide] gave an EC50 of 534 nM.

The compound `O=C(NCCc1c[nH]c2ccc(Cl)cc12)C1CCN(C2CCCCC2)C1=O` (centres unmarked) [Example D76, N-(2-(5-chloro-1H-indol-3-yl)ethyl)-1-cyclohexyl-2-oxopyrrolidine-3-carboxamide] showed an EC50 of 571 nM.

`O=C(NCCc1c[nH]c2ccc(Cl)cc12)c1nnc(C2CCCCC2)o1` [Example D77, N-(2-(5-chloro-1H-indol-3-yl)ethyl)-5-cyclohexyl-1,3,4-oxadiazole-2-carboxamide] had an EC50 of 595 nM.

`O=C(NCCc1c[nH]c2ccc(Cl)cc12)C1CCN(c2ccc(F)cc2)C1=O` (centres unmarked) [Example D78, N-(2-(5-chloro-1H-indol-3-yl)ethyl)-1-(4-fluorophenyl)-2-oxopyrrolidine-3-carboxamide] had an EC50 of 691 nM.

`O=C(NCCc1c[nH]c2ccc(Cl)cc12)C1CCN(c2ccccc2F)C1=O` (centres unmarked) [Example D79, N-(2-(5-chloro-1H-indol-3-yl)ethyl)-1-(2-fluorophenyl)-2-oxopyrrolidine-3-carboxamide] displayed an EC50 of 857 nM.

Compound `O=C(NCCc1c[nH]c2ccc(Cl)cc12)C1=N[C@@H](Cc2ccccc2)CO1` [Example D80, (S)-4-benzyl-N-(2-(5-chloro-1H-indol-3-yl)ethyl)-4,5-dihydrooxazole-2-carboxamide] showed an EC50 of 915 nM.

Turning to `O=C(NCCc1c[nH]c2ccc(Cl)cc12)C1=N[C@H](Cc2ccccc2)CO1` [Example D81, (R)-4-benzyl-N-(2-(5-chloro-1H-indol-3-yl)ethyl)-4,5-dihydrooxazole-2-carboxamide], the midpoint of the response, the EC50, lay at 917 nM.

The compound `CCc1cccc(N2CCC(C(=O)NCCc3c[nH]c4ccc(Cl)cc34)C2=O)c1` (centres unmarked) [Example D82, N-(2-(5-chloro-1H-indol-3-yl)ethyl)-1-(3-ethylphenyl)-2-oxopyrrolidine-3-carboxamide] returned an EC50 of 939 nM.

On to `O=C(NCCc1c[nH]c2ccc(Cl)cc12)C1=NC(c2ccccc2)CO1` (centres unmarked) [Example D83, N-(2-(5-chloro-1H-indol-3-yl)ethyl)-4-phenyl-4,5-dihydrooxazole-2-carboxamide], for which the EC50 was 979 nM.

Take `COc1ccc2[nH]cc(CCNC(=O)c3c(-c4ccccc4)noc3C)c2c1` [Example D109, N-(2-(5-methoxy-1H-indol-3-yl)ethyl)-5-methyl-3-phenylisoxazole-4-carboxamide]: a half-maximal response (EC50) required 3110 nM.

The compound `Cc1ccc(Nc2nc(C(=O)NCCc3c[nH]c4ccccc34)cs2)cc1` [Example D110, N-(2-(1H-indol-3-yl)ethyl)-2-(p-tolylamino)thiazole-4-carboxamide] gave an EC50 of 274 nM.

Compound `Cc1onc(-c2ccccc2)c1C(=O)NCCc1c[nH]c2ccc(Cl)cc12` [Example D111, N-(2-(5-chloro-1H-indol-3-yl)ethyl)-5-methyl-3-phenylisoxazole-4-carboxamide] came in with an EC50 of 582 nM.

Regarding `Cc1ncoc1C(=O)NCCc1c[nH]c2ccc(Cl)cc12` [Example D112, N-(2-(5-chloro-1H-indol-3-yl)ethyl)-4-methyloxazole-5-carboxamide], the midpoint of the response, the EC50, lay at 1250 nM.

For the compound `Cc1cc(C(=O)NCCc2c[nH]c3ccc(Cl)cc23)no1` [Example D114, N-(2-(5-chloro-1H-indol-3-yl)ethyl)-5-methylisoxazole-3-carboxamide], it took 30 nM to reach a half-maximal effect (EC50).

Turning to `Cc1noc(-c2ccccc2)c1C(=O)NCCc1c[nH]c2ccc(Cl)cc12` [Example D115, N-(2-(5-chloro-1H-indol-3-yl)ethyl)-3-methyl-5-phenylisoxazole-4-carboxamide], the EC50 is 269 nM.

In turn, `Cc1nc(C(=O)NCCc2c[nH]c3ccc(Cl)cc23)c(C)o1` [Example D116, N-(2-(5-chloro-1H-indol-3-yl)ethyl)-2,5-dimethyloxazole-4-carboxamide] came in with a concentration for a half-maximal effect (EC50) of 306 nM.

As to `O=C(NCCc1c[nH]c2ccc(Cl)cc12)c1ccnn1-c1ccccc1` [Example D117, N-(2-(5-chloro-1H-indol-3-yl)ethyl)-1-phenyl-1H-pyrazole-5-carboxamide], the EC50 was found to be 979 nM.

In turn, `Cn1ccc(C(=O)NCCc2c[nH]c3ccc(Cl)cc23)n1` [Example D118, N-(2-(5-chloro-1H-indol-3-yl)ethyl)-1-methyl-1H-pyrazole-3-carboxamide] yielded an EC50 of 332 nM.

On to `Cn1nccc1C(=O)NCCc1c[nH]c2ccc(Cl)cc12` [Example D119, N-(2-(5-chloro-1H-indol-3-yl)ethyl)-1-methyl-1H-pyrazole-5-carboxamide], for which the EC50 was determined as 1030 nM.

In turn, `CC(C)(C)c1cc(C(=O)NCCc2c[nH]c3ccc(Cl)cc23)n(Cc2ccccc2)n1` [Example D120, 1-benzyl-3-tert-butyl-N-(2-(5-chloro-1H-indol-3-yl)ethyl)-1H-pyrazole-5-carboxamide] gave an EC50 of 868 nM.

With `O=C(NCCc1c[nH]c2ccc(Cl)cc12)c1cc(CO)on1` [Example D121, N-(2-(5-chloro-1H-indol-3-yl)ethyl)-5-(hydroxymethyl)isoxazole-3-carboxamide], it took 105 nM to reach a half-maximal effect (EC50).

As to `CCOCc1cc(C(=O)NCCc2c[nH]c3ccc(Cl)cc23)no1` [Example D123, N-(2-(5-chloro-1H-indol-3-yl)ethyl)-5-(ethoxymethyl)isoxazole-3-carboxamide], the EC50 turned out to be 19 nM.

On to `CN(C)c1cc(C(=O)NCCc2c[nH]c3ccc(Cl)cc23)no1` [Example D124, N-(2-(5-chloro-1H-indol-3-yl)ethyl)-5-(dimethylamino)isoxazole-3-carboxamide], for which a half-maximal effect (EC50) was put at 5290 nM.

`CCN(CC)Cc1cc(C(=O)NCCc2c[nH]c3ccc(Cl)cc23)no1` [Example D125, N-(2-(5-chloro-1H-indol-3-yl)ethyl)-5-((diethylamino)methyl)isoxazole-3-carboxamide] returned an EC50 of 347 nM.

`O=C(CCc1c[nH]c2ccc(Cl)cc12)N1CCN(Cc2ccccc2)C1` [Example D126, 1-(3-benzylimidazolidin-1-yl)-3-(5-chloro-1H-indol-3-yl)propan-1-one]: it took 357 nM to reach a half-maximal effect (EC50).

For the compound `O=C(NCCc1c[nH]c2ncc(Cl)cc12)c1cc(C(=O)c2cc(F)ccc2F)on1` [Example D127, N-(2-(5-chloro-1H-pyrrolo[2,3-b]pyridin-3-yl)ethyl)-5-(2,5-difluorobenzoyl)isoxazole-3-carboxamide], the response was half-maximal at 436 nM (EC50).

With `O=C(NCCc1c[nH]c2ncc(Cl)cc12)c1cc(Cc2cc(F)ccc2F)on1` [Example D128, N-(2-(5-chloro-1H-pyrrolo[2,3-b]pyridin-3-yl)ethyl)-5-(2,5-difluorobenzyl)isoxazole-3-carboxamide], the EC50 is 105 nM.

In turn, `O=C(NCCc1c[nH]c2ccc(Cl)cc12)c1cc(Cc2ccc(F)c(F)c2)on1` [Example D129, N-(2-(5-chloro-1H-indol-3-yl)ethyl)-5-(3,4-difluorobenzyl)isoxazole-3-carboxamide] showed a concentration for a half-maximal effect (EC50) of 8 nM.

Compound `O=C(NCCc1c[nH]c2ccc(Cl)cc12)c1cc(Cc2cccc(F)c2F)on1` [Example D130, N-(2-(5-chloro-1H-indol-3-yl)ethyl)-5-(2,3-difluorobenzyl)isoxazole-3-carboxamide] had an EC50 of 20 nM.

For `O=C(NCCc1c[nH]c2ccc(Cl)cc12)c1cc(Cc2cc(F)cc(F)c2)on1` [Example D131, N-(2-(5-chloro-1H-indol-3-yl)ethyl)-5-(3,5-difluorobenzyl)isoxazole-3-carboxamide], the EC50 was 13 nM.

Take `O=C(NCCc1c[nH]c2ccc(Cl)cc12)C1CCN(c2ccc(C(F)(F)F)cc2)C1=O` (centres unmarked) [Example D132, N-(2-(5-chloro-1H-indol-3-yl)ethyl)-2-oxo-1-(4-(trifluoromethyl)phenyl)pyrrolidine-3-carboxamide]: the midpoint of the response, the EC50, lay at 57 nM.

These data come from US8618138B2, “Indole amide derivatives and related compounds for use in the treatment of neurodegenerative diseases” (Katholieke Universiteit Leuven, K.U. Leuven R&D, priority 2009, dated 2013).
